Assay results from patent US20120094998A1, “Oligomer-Protein Tyrosine Kinase Inhibitor Conjugates” (Nektar Therapeutics, priority 2009, published 2012).

Experiments:
[1] = biological target: PDGFR_beta (Homo sapiens, UniProt P09619); experiment: Activity against various protein tyrosine kinases: PDGFR_beta; assay type: biochemical; settings: for inhibition at 0.01 µM: 10 nM
Description: (§1) Using techniques know those of ordinary skill in the art, compounds were tested for activity against various protein tyrosine kinases.

[2] = biological target: FGFR3 (Homo sapiens, UniProt P22607); experiment: Activity against various protein tyrosine kinases: FGFR3; assay type: biochemical; settings: for inhibition at 0.01 µM: 10 nM
Chain of FGFR3 (P22607 23-806, species assumed): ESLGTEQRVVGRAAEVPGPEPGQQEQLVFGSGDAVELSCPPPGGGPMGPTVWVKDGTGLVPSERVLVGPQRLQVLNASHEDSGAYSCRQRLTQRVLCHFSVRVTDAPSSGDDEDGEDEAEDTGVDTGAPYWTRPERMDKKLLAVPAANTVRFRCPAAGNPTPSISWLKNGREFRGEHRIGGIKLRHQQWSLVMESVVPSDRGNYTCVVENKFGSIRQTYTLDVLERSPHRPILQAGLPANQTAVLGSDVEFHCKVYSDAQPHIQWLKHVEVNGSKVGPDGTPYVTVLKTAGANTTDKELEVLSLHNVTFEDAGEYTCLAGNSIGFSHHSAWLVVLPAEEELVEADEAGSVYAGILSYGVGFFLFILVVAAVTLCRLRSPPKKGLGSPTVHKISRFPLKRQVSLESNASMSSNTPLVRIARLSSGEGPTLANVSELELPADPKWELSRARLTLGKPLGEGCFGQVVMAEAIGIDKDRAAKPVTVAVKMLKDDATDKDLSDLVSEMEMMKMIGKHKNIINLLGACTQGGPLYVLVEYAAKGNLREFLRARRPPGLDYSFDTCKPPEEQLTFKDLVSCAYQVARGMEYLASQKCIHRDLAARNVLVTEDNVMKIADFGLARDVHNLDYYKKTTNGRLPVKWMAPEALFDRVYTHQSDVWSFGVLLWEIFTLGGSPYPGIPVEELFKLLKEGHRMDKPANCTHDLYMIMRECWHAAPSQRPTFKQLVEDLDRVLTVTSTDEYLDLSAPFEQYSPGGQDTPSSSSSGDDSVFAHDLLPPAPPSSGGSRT
Description: as §1

[3] = biological target: YES (Homo sapiens, UniProt P07947); experiment: Activity against various protein tyrosine kinases: YES; assay type: biochemical; settings: for inhibition at 0.01 µM: 10 nM
Chain of YES (P07947 whole entry, species assumed): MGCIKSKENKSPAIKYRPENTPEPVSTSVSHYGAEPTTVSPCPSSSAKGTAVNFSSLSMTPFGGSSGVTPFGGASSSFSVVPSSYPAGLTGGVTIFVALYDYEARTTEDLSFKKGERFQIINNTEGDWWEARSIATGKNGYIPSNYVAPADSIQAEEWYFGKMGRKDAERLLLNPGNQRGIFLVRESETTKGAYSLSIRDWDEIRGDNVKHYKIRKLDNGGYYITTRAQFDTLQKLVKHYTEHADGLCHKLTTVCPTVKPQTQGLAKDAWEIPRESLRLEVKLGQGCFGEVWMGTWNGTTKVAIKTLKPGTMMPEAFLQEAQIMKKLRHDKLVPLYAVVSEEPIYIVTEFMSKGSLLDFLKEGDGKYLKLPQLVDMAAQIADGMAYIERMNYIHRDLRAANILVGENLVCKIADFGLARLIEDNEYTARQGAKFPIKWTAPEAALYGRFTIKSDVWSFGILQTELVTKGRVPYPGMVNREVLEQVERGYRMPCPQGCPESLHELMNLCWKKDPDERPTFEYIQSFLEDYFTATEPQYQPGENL
Description: as §1

[4] = biological target: ABL (Homo sapiens, UniProt P00519)
Chain of ABL (P00519 whole entry): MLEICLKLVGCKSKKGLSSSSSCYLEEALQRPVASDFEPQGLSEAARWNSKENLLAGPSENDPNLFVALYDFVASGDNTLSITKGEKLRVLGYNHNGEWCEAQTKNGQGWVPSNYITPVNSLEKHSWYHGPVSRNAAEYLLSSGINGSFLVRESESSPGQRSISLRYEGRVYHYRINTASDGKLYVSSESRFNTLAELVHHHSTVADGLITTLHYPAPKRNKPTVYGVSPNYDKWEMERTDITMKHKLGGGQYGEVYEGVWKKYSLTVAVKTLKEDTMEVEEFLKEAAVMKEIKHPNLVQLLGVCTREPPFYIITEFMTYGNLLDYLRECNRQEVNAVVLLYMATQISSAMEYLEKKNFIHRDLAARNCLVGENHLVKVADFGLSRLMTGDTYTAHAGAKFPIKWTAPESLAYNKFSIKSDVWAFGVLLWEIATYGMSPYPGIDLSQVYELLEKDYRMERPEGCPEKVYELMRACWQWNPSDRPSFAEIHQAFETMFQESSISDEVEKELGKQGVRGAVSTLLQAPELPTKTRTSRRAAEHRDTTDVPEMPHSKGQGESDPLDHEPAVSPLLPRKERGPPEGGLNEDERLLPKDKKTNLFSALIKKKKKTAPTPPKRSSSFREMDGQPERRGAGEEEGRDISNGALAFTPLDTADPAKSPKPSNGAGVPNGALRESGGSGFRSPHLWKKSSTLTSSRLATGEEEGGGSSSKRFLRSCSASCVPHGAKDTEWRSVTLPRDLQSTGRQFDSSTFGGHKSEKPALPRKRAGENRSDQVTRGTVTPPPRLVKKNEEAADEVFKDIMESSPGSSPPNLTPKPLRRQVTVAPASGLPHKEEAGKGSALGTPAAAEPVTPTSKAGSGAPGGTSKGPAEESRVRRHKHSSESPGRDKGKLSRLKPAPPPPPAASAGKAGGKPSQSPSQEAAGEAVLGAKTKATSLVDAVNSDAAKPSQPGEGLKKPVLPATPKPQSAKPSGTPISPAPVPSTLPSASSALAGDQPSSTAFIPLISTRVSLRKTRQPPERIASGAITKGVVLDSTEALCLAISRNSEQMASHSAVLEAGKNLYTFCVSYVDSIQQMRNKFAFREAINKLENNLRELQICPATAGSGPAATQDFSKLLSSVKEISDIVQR

Chain of PDGFR_beta (P09619 33-1106, species assumed): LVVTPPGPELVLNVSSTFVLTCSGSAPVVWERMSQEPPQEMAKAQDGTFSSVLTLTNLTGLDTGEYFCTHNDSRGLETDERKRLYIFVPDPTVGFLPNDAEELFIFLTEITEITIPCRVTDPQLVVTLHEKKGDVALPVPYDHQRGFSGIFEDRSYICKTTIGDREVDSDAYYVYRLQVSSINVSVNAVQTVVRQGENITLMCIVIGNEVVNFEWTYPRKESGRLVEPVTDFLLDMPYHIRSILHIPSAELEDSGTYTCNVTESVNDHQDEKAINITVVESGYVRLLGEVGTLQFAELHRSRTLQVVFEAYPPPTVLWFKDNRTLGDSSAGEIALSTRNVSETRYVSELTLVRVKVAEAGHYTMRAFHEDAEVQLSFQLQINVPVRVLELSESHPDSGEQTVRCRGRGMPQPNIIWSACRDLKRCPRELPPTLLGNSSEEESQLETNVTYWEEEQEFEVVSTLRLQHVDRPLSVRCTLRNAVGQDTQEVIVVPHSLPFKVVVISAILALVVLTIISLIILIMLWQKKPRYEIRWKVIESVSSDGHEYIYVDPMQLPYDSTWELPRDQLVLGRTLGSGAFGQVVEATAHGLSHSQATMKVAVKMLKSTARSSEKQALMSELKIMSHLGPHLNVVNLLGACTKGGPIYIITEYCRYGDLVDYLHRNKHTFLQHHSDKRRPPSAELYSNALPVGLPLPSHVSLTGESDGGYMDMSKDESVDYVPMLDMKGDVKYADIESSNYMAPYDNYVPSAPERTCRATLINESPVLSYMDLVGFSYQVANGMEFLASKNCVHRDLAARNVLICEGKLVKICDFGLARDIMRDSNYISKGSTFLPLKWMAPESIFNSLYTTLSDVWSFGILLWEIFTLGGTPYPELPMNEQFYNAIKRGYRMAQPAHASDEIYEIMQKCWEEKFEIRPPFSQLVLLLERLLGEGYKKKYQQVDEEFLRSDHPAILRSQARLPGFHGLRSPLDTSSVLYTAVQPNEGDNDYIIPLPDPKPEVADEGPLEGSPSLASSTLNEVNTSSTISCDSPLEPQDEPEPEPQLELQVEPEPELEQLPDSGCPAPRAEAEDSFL

| inhibition at 0.01 µM [1] [%] | inhibition at 1 µM [1] [%] | inhibition at 0.01 µM [2] [%] | inhibition at 1 µM [2] [%] | inhibition at 0.01 µM [3] [%] | inhibition at 1 µM [3] [%] | ABL AVG % Activity at 1.0E−09 [4] [%] | ABL AVG % Activity at 1.0E−10 [4] [%] | ABL AVG % Activity at 1.0E−11 [4] [%] | ABL AVG % Activity at 3.0E−09 [4] [%] | ABL AVG % Activity at 3.0E−10 [4] [%] | ABL AVG % Activity at 3.0E−11 [4] [%] | Compound |
| --- | --- | --- | --- | --- | --- | --- | --- | --- | --- | --- | --- | --- |
| 60 | 100 | 2 | 10 | 100 | 102 |  |  |  |  |  |  | COCCOCCOCCOCCOCCOCCOCCNC(=O)OCCN1CCN(c2cc(Nc3ncc(C(=O)Nc4c(C)cccc4Cl)s3)nc(C)n2)CC1 [mPEG7-NHCOO-Dasatinib] |
| 48 | 99 | 3 | 11 | 100 | 100 | 4 | 81 | 99 | 0 | 47 | 95 | COCCOCCOCCNC(=O)OCCN1CCN(c2cc(Nc3ncc(C(=O)Nc4c(C)cccc4Cl)s3)nc(C)n2)CC1 [mPEG3-NHCOO-Dasatinib] |
